Here are results for 5 molecules from the supplement of paper PMC10307832.

One assay relates to NCI-H2126. Nature of the assay: relative viability (nuclei count vs DMSO), 5 days (fraction); higher = more cells survive. To be noted: first compound 0.2 µM. The gist of the method: (§1)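 Dosing by pin tool came one day after lung cancer cell lines were seeded in 1536-well plates, using either one drug or a fixed anchor-drug dose plus five library-drug doses (not always all listed) in √10 steps. After 5 days, nuclei were counted on 4× images. Relative viability is treated-well nuclei count divided by vehicle-well nuclei count, and values are medians of duplicate plates.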
Regarding `COCC1(CO)C(=O)C2CCN1CC2` (stereo not drawn) [PRIMA-1MET] + COc1cccc2cc(-c3nc([C@H]4CC[C@H](C(=O)O)CC4)n4ncnc(N)c34)[nH]c12 [OSI-027] (partner 0.5 µM), the relative viability came out at 0.799.

As for `COCC1(CO)C(=O)C2CCN1CC2` (stereo not drawn) [PRIMA-1MET] + N=C(N)NC(=N)NCCc1ccccc1 [Phenformin] (partner 250 µM), the relative viability is 0.568.

In turn, `COCC1(CO)C(=O)C2CCN1CC2` (stereo not drawn) [PRIMA-1MET] + Nc1nc2[nH]cc(CCc3ccc(C(=O)N[C@@H](CCC(=O)O)C(=O)O)cc3)c2c(=O)[nH]1 [Pemetrexed] (partner 0.2 µM) showed a relative viability of 0.657.

Molecule `COCC1(CO)C(=O)C2CCN1CC2` (stereo not drawn) [PRIMA-1MET] + Cc1nc(Nc2ncc(C(=O)Nc3c(C)cccc3Cl)s2)cc(N2CCN(CCO)CC2)n1 [Dasatinib] (partner 0.075 µM) had a relative viability of 0.722.

The assay is the same for the next values; noted with them: first compound 0.6325 µM.
In the case of `COCC1(CO)C(=O)C2CCN1CC2` (stereo not drawn) [PRIMA-1MET] + CCNC(=O)c1noc(-c2cc(C(C)C)c(O)cc2O)c1-c1ccc(CN2CCOCC2)cc1 [Luminespib] (partner 0.01 µM), the relative viability came out at 0.867.

Turning to `COCC1(CO)C(=O)C2CCN1CC2` (stereo not drawn) [PRIMA-1MET] + COc1cccc2cc(-c3nc([C@H]4CC[C@H](C(=O)O)CC4)n4ncnc(N)c34)[nH]c12 [OSI-027] (partner 0.5 µM), the relative viability was found to be 0.603.

`COCC1(CO)C(=O)C2CCN1CC2` (stereo not drawn) [PRIMA-1MET] + N=C(N)NC(=N)NCCc1ccccc1 [Phenformin] (partner 250 µM) showed a relative viability of 0.532.

As to `COCC1(CO)C(=O)C2CCN1CC2` (stereo not drawn) [PRIMA-1MET] + Nc1nc2[nH]cc(CCc3ccc(C(=O)N[C@@H](CCC(=O)O)C(=O)O)cc3)c2c(=O)[nH]1 [Pemetrexed] (partner 0.2 µM), the relative viability was found to be 0.614.

`COCC1(CO)C(=O)C2CCN1CC2` (stereo not drawn) [PRIMA-1MET] + Cc1nc(Nc2ncc(C(=O)Nc3c(C)cccc3Cl)s2)cc(N2CCN(CCO)CC2)n1 [Dasatinib] (partner 0.075 µM) displayed a relative viability of 0.58.

The assay is the same for the next values; noted with them: first compound 2 µM.
The molecule `COCC1(CO)C(=O)C2CCN1CC2` (stereo not drawn) [PRIMA-1MET] + CCNC(=O)c1noc(-c2cc(C(C)C)c(O)cc2O)c1-c1ccc(CN2CCOCC2)cc1 [Luminespib] (partner 0.01 µM) had a relative viability of 0.89.

In turn, `COCC1(CO)C(=O)C2CCN1CC2` (stereo not drawn) [PRIMA-1MET] + COc1cccc2cc(-c3nc([C@H]4CC[C@H](C(=O)O)CC4)n4ncnc(N)c34)[nH]c12 [OSI-027] (partner 0.5 µM) displayed a relative viability of 0.56.

Regarding `COCC1(CO)C(=O)C2CCN1CC2` (stereo not drawn) [PRIMA-1MET] + N=C(N)NC(=N)NCCc1ccccc1 [Phenformin] (partner 250 µM), the relative viability was determined as 0.513.

The molecule `COCC1(CO)C(=O)C2CCN1CC2` (stereo not drawn) [PRIMA-1MET] + Nc1nc2[nH]cc(CCc3ccc(C(=O)N[C@@H](CCC(=O)O)C(=O)O)cc3)c2c(=O)[nH]1 [Pemetrexed] (partner 0.2 µM) registered a relative viability of 0.609.

In the case of `COCC1(CO)C(=O)C2CCN1CC2` (stereo not drawn) [PRIMA-1MET] + Cc1nc(Nc2ncc(C(=O)Nc3c(C)cccc3Cl)s2)cc(N2CCN(CCO)CC2)n1 [Dasatinib] (partner 0.075 µM), the relative viability was found to be 0.643.

The assay is the same for the next values; noted with them: first compound 6.325 µM.
In turn, `COCC1(CO)C(=O)C2CCN1CC2` (stereo not drawn) [PRIMA-1MET] + CCNC(=O)c1noc(-c2cc(C(C)C)c(O)cc2O)c1-c1ccc(CN2CCOCC2)cc1 [Luminespib] (partner 0.01 µM) registered a relative viability of 0.929.

Consider `COCC1(CO)C(=O)C2CCN1CC2` (stereo not drawn) [PRIMA-1MET] + COc1cccc2cc(-c3nc([C@H]4CC[C@H](C(=O)O)CC4)n4ncnc(N)c34)[nH]c12 [OSI-027] (partner 0.5 µM), for which the relative viability turned out to be 0.728.

`COCC1(CO)C(=O)C2CCN1CC2` (stereo not drawn) [PRIMA-1MET] + N=C(N)NC(=N)NCCc1ccccc1 [Phenformin] (partner 250 µM) displayed a relative viability of 0.577.

`COCC1(CO)C(=O)C2CCN1CC2` (stereo not drawn) [PRIMA-1MET] + Nc1nc2[nH]cc(CCc3ccc(C(=O)N[C@@H](CCC(=O)O)C(=O)O)cc3)c2c(=O)[nH]1 [Pemetrexed] (partner 0.2 µM) came in with a relative viability of 0.699.

With `COCC1(CO)C(=O)C2CCN1CC2` (stereo not drawn) [PRIMA-1MET] + Cc1nc(Nc2ncc(C(=O)Nc3c(C)cccc3Cl)s2)cc(N2CCN(CCO)CC2)n1 [Dasatinib] (partner 0.075 µM), the relative viability stood at 0.646.

The same assay, now with this note: first compound 20 µM.
Regarding `COCC1(CO)C(=O)C2CCN1CC2` (stereo not drawn) [PRIMA-1MET] + CCNC(=O)c1noc(-c2cc(C(C)C)c(O)cc2O)c1-c1ccc(CN2CCOCC2)cc1 [Luminespib] (partner 0.01 µM), the relative viability amounted to 0.885.

`COCC1(CO)C(=O)C2CCN1CC2` (stereo not drawn) [PRIMA-1MET] + COc1cccc2cc(-c3nc([C@H]4CC[C@H](C(=O)O)CC4)n4ncnc(N)c34)[nH]c12 [OSI-027] (partner 0.5 µM): the relative viability came to 0.675.

Regarding `COCC1(CO)C(=O)C2CCN1CC2` (stereo not drawn) [PRIMA-1MET] + N=C(N)NC(=N)NCCc1ccccc1 [Phenformin] (partner 250 µM), the relative viability is 0.531.

Turning to `COCC1(CO)C(=O)C2CCN1CC2` (stereo not drawn) [PRIMA-1MET] + Nc1nc2[nH]cc(CCc3ccc(C(=O)N[C@@H](CCC(=O)O)C(=O)O)cc3)c2c(=O)[nH]1 [Pemetrexed] (partner 0.2 µM), the relative viability was determined as 0.67.

As for `COCC1(CO)C(=O)C2CCN1CC2` (stereo not drawn) [PRIMA-1MET] + Cc1nc(Nc2ncc(C(=O)Nc3c(C)cccc3Cl)s2)cc(N2CCN(CCO)CC2)n1 [Dasatinib] (partner 0.075 µM), the relative viability amounted to 0.605.

For a further assay, the system named is NCI-H2009. Described as above. To be noted: first compound 0.2 µM. Summed up:
as §1
Turning to `COCC1(CO)C(=O)C2CCN1CC2` (stereo not drawn) [PRIMA-1MET] + CCNC(=O)c1noc(-c2cc(C(C)C)c(O)cc2O)c1-c1ccc(CN2CCOCC2)cc1 [Luminespib] (partner 0.01 µM), the relative viability amounted to 0.981.

`COCC1(CO)C(=O)C2CCN1CC2` (stereo not drawn) [PRIMA-1MET] + COc1cccc2cc(-c3nc([C@H]4CC[C@H](C(=O)O)CC4)n4ncnc(N)c34)[nH]c12 [OSI-027] (partner 0.5 µM) displayed a relative viability of 0.699.

For the molecule `COCC1(CO)C(=O)C2CCN1CC2` (stereo not drawn) [PRIMA-1MET] + N=C(N)NC(=N)NCCc1ccccc1 [Phenformin] (partner 250 µM), the relative viability came to 0.497.

`COCC1(CO)C(=O)C2CCN1CC2` (stereo not drawn) [PRIMA-1MET] + Nc1nc2[nH]cc(CCc3ccc(C(=O)N[C@@H](CCC(=O)O)C(=O)O)cc3)c2c(=O)[nH]1 [Pemetrexed] (partner 0.2 µM) registered a relative viability of 0.973.

Regarding `COCC1(CO)C(=O)C2CCN1CC2` (stereo not drawn) [PRIMA-1MET] + Cc1nc(Nc2ncc(C(=O)Nc3c(C)cccc3Cl)s2)cc(N2CCN(CCO)CC2)n1 [Dasatinib] (partner 0.075 µM), the relative viability was determined as 0.298.

The same assay, now with this note: first compound 0.6325 µM.
The molecule `COCC1(CO)C(=O)C2CCN1CC2` (stereo not drawn) [PRIMA-1MET] + CCNC(=O)c1noc(-c2cc(C(C)C)c(O)cc2O)c1-c1ccc(CN2CCOCC2)cc1 [Luminespib] (partner 0.01 µM) showed a relative viability of 0.97.

In the case of `COCC1(CO)C(=O)C2CCN1CC2` (stereo not drawn) [PRIMA-1MET] + COc1cccc2cc(-c3nc([C@H]4CC[C@H](C(=O)O)CC4)n4ncnc(N)c34)[nH]c12 [OSI-027] (partner 0.5 µM), the relative viability was 0.578.

As for `COCC1(CO)C(=O)C2CCN1CC2` (stereo not drawn) [PRIMA-1MET] + N=C(N)NC(=N)NCCc1ccccc1 [Phenformin] (partner 250 µM), the relative viability amounted to 0.456.

In the case of `COCC1(CO)C(=O)C2CCN1CC2` (stereo not drawn) [PRIMA-1MET] + Nc1nc2[nH]cc(CCc3ccc(C(=O)N[C@@H](CCC(=O)O)C(=O)O)cc3)c2c(=O)[nH]1 [Pemetrexed] (partner 0.2 µM), the relative viability turned out to be 1.03.
